Source: ChEMBL document CHEMBL1135370, “Selective urokinase-type plasminogen activator (uPA) inhibitors. Part 2: (3-Substituted-5-halo-2-pyridinyl)guanidines” (Bioorg Med Chem Lett, 2002)

Experiments:
Plasminogen [1] = molecular target: T1, Plasminogen (Homo sapiens, UniProt P00747); test: Ability to inhibit human plasmin using Chromozym-PL as substrate at concentration of 1 uM
[2] = molecular target: T2, Tissue-type plasminogen activator (Homo sapiens, UniProt P00750); test: Ability to inhibit human tissue plasminogen activator stimulator at concentration of 1 uM
Target sequence in this assay (P00750 36-562 limits assumed): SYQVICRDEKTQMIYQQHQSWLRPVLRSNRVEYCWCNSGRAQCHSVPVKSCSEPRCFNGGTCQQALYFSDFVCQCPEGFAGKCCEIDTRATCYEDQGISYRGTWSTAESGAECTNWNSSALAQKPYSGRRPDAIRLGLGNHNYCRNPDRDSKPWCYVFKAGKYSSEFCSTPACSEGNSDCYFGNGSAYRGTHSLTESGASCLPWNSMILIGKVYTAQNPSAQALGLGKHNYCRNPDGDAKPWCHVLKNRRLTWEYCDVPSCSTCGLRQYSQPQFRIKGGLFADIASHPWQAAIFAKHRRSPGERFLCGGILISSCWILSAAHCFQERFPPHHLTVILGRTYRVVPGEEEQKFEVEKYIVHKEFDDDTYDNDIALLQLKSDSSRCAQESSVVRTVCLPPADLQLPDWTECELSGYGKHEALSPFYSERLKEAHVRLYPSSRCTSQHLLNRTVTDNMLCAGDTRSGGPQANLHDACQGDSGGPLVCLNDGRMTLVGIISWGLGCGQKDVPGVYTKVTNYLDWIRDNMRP

Plasminogen [3] = molecular target: T1, Plasminogen; test: Ability to inhibit plasmin using human plasmin (quadratech) and Chromozym-PL (boehringer) as substrate
[4] = molecular target: T2, Tissue-type plasminogen activator; test: Ability to inhibit tissue plasminogen activator (quadratech) and S-2444 as substrate
Target sequence in this assay (P00750 whole entry): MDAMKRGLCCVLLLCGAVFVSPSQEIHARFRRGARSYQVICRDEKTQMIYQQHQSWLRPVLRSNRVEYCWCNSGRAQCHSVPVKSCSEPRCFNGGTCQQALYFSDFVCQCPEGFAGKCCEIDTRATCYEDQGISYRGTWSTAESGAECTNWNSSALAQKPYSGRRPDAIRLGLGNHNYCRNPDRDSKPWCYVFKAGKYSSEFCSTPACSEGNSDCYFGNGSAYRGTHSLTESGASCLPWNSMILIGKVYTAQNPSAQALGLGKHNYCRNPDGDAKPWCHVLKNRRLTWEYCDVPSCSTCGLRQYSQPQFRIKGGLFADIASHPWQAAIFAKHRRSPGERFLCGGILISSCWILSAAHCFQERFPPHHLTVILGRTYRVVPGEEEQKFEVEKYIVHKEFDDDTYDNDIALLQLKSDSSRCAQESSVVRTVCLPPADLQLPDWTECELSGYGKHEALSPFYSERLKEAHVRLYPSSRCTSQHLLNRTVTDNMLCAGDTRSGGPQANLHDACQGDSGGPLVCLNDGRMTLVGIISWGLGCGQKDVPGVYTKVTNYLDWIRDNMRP

[5] = molecular target: Urokinase-type plasminogen activator (Homo sapiens, UniProt P00749); test: In vitro inhibition of human urokinase Plasminogen Activator.
Plasminogen [6] = molecular target: T1, Plasminogen; test: In vitro inhibition of human plasmin.; parameters: concentration or dose not given beside the values; conditions: concentration not given here
[7] = molecular target: T2, Tissue-type plasminogen activator; test: Ability to inhibit tissue plasminogen activator (quadratech) and S-2444 as substrate at concentration of 1 mM
Target sequence in this assay (P00750 36-562 limits assumed): as the sequence (P00750 36-562 limits assumed) above

Plasminogen [8] = molecular target: T1, Plasminogen; test: Ability to inhibit plasmin using human plasmin (quadratech) and Chromozym-PL (boehringer) as substrate at concentration of 100 uM
[9] = molecular target: T2, Tissue-type plasminogen activator; test: Ability to inhibit tissue plasminogen activator (quadratech) and S-2444 as substrate at concentration of 300 uM
Target sequence in this assay (P00750 36-562 limits assumed): as above

T1 sequence (P00747 97-580 limits assumed): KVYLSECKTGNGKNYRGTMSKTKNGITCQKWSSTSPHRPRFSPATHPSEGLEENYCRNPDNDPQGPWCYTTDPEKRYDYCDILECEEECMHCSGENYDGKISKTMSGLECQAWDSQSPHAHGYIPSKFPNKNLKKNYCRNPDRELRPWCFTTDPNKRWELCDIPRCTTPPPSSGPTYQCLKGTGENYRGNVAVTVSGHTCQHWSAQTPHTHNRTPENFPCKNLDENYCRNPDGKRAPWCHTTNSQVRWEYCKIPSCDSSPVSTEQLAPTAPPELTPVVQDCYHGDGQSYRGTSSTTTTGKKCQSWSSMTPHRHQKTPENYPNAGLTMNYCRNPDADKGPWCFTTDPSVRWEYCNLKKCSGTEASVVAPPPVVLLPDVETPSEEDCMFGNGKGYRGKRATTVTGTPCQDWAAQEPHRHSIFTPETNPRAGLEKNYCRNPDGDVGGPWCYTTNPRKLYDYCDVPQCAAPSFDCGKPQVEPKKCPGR
T1 sequence (P00747 581-810 limits assumed): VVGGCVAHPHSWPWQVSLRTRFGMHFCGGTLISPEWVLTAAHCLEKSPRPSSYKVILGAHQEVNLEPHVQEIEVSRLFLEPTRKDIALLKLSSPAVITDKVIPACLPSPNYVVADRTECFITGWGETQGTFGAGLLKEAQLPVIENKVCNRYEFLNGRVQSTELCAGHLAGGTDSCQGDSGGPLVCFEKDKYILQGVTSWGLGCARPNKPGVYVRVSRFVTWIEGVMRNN

Row | Compound | Ki [4] | Ki [5] | inhibition (Plasminogen [6]) | inhibition [7] | also measured
1 | N=C(N)Nc1ncc(Cl)cc1/C=C/C(=O)O |  |  |  |  | Ki (Plasminogen [1]): 279 µM; inhibition [2]: < 50%
2 | N=C(N)Nc1ncc(Cl)cc1C#Cc1ccccc1 | 65.9 µM |  |  |  | Ki (Plasminogen [3]): 218 µM
3 | NC(N)=Nc1ncc(Cl)cc1OCC(=O)NCc1ccccc1 |  | 16.1 µM |  |  | 
4 | N=C(N)Nc1ncc(Cl)cc1/C=C/c1ccccc1 | 53.8 µM |  | < 50% |  | 
5 | N=C(N)Nc1ncc(Cl)cc1OCC(=O)O |  |  | < 50% | < 50% | 
6 | N=C(N)Nc1ncc(Cl)cc1/C=C/C(=O)NCc1ccccc1 |  | 0.77 µM | < 50% | < 50% | 
7 | N=C(N)Nc1ncc(Cl)cc1Oc1ccccc1 | 342 µM | 2.13 µM | < 50% |  | 
8 | CNC(=O)/C=C/c1cc(Cl)cnc1N=C(N)N |  | 1.28 µM | < 50% | < 50% | 
9 | NC(N)=Nc1ncc(Cl)cc1/C=C/c1cccc(C(=O)O)c1 | 52 µM | 0.17 µM |  |  | 
10 | N=C(N)Nc1ncc(Cl)cc1/C=C/C(=O)N1CCOCC1 |  | 2.1 µM | < 50% | < 50% | 
11 | N=C(N)Nc1ncc(Cl)cc1-c1ccccc1 |  | 166 µM | < 50% | < 50% | 
12 | N=C(N)Nc1ncc(Cl)cc1OCc1ccccc1 |  | 0.92 µM | < 50% | < 50% | 
13 | COc1ccc(/C=C/c2cc(Cl)cnc2N=C(N)N)cc1 | 60.1 µM | 0.69 µM |  |  | Ki (Plasminogen [3]): 42.5 µM
14 | N=C(N)Nc1ncc(Cl)cc1OCC(=O)NCc1ccccc1 |  |  | < 50% | < 50% | 
15 | COCCOc1cc(Cl)cnc1N=C(N)N |  | 16.4 µM | < 50% | < 50% | 
16 | N=C(N)Nc1ncc(Cl)cc1/C=C/c1cccc(C(=O)O)c1 |  |  |  |  | inhibition (Plasminogen [8]): < 50%
17 | N=C(N)Nc1ncc(Cl)cc1CCC(=O)O |  |  | < 50% | < 50% | 
18 | N=C(N)Nc1ncc(Cl)cc1/C=C/C1CCCCC1 | 71.5 µM |  | < 50% |  | 
19 | N=C(N)Nc1ncc(Cl)cc1/C=C/c1ccc2c(c1)OCO2 |  | 0.49 µM | < 50% |  | inhibition [9]: 50%
20 | N=C(N)Nc1ncc(Cl)cc1/C=C/c1ccccn1 | 258 µM | 1.6 µM | < 50% |  | 
21 | CN(Cc1ccccc1)C(=O)/C=C/c1cc(Cl)cnc1N=C(N)N |  | 2 µM | < 50% | < 50% | 
